Source: patent publication US20240254118A1, “PRMT5 INHIBITORS AND USES THEREOF” (Gilead Sciences, Inc., priority 2022, published 2024)

What follows are molecules tested on HCT116 MTAP-deleted cells (assay: Cell viability assay (CellTiter-Glo, 7 days), HCT116 MTAP-deleted). Conditions: Homo sapiens, HCT-116, 168 h.

Row | SMILES | CC50
1 | Nc1nc2ccc(C(=O)N(Cc3nc4ccc(Cl)cc4[nH]3)N3CCCC3=O)cc2c2ccccc12 [Example 124, 6-amino-N-((6-chloro-1H-benzo[d]imidazol-2-yl)methyl)-N-(2-oxopyrrolidin-1-yl)phenanthridine-2-carboxamide] | 100 to 1000 nM
2 | CC(=O)N(C)N(Cc1ccc(-c2cnc(C(F)(F)F)s2)cc1F)C(=O)c1ccc2nc(N)c3cnn(C)c3c2c1 [Example 217, N′-acetyl-4-amino-N-(2-fluoro-4-(2-(trifluoromethyl)thiazol-5-yl)benzyl)-N′,1-dimethyl-1H-pyrazolo[4,3-c]quinoline-8-carbohydrazide] | < 100 nM
3 | CC(=O)N(C)N(Cc1ccc(-c2ccc(C(F)(F)F)cn2)cc1F)C(=O)c1ccc2nc(N)c3cnn(C)c3c2c1 [Example 224, N′-acetyl-4-amino-N-(2-fluoro-4-(5-(trifluoromethyl)pyridin-2-yl)benzyl)-N′,1-dimethyl-1H-pyrazolo[4,3-c]quinoline-8-carbohydrazide] | < 100 nM
4 | CC(=O)N(C)N(Cc1ccc(-c2cc(C(F)(F)F)ccn2)cc1F)C(=O)c1ccc2nc(N)c3cnn(C)c3c2c1 [Example 225, N′-acetyl-4-amino-N-(2-fluoro-4-(4-(trifluoromethyl)pyridin-2-yl)benzyl)-N′,1-dimethyl-1H-pyrazolo[4,3-c]quinoline-8-carbohydrazide] | < 100 nM
5 | CC(=O)N(C)N(Cc1ccc(-c2cnoc2)cc1F)C(=O)c1ccc2nc(N)c3cnn(C)c3c2c1 [Example 227, N′-acetyl-4-amino-N-(2-fluoro-4-(isoxazol-4-yl)benzyl)-N′,1-dimethyl-1H-pyrazolo[4,3-c]quinoline-8-carbohydrazide] | < 100 nM
6 | CC(=O)N(C)N(Cc1ccc(-c2ccc(C(F)(F)F)s2)cc1F)C(=O)c1ccc2nc(N)c3cnn(C)c3c2c1 [Example 237, N′-acetyl-4-amino-N-(2-fluoro-4-(5-(trifluoromethyl)thiophen-2-yl)benzyl)-N′,1-dimethyl-1H-pyrazolo[4,3-c]quinoline-8-carbohydrazide] | < 100 nM
7 | CN(C(=O)C1CC1)N(Cc1ccc(-c2ccsn2)cc1F)C(=O)c1ccc2nc(N)c3cnn(C)c3c2c1 [Example 239, 4-amino-N′-(cyclopropanecarbonyl)-N-(2-fluoro-4-(isothiazol-3-yl)benzyl)-N′,1-dimethyl-1H-pyrazolo[4,3-c]quinoline-8-carbohydrazide] | < 100 nM
8 | CC(=O)N(C)N(Cc1ccc(-c2cccnc2)cc1F)C(=O)c1ccc2nc(N)c3cnn(C)c3c2c1 [Example 241, N′-acetyl-4-amino-N-(2-fluoro-4-(pyridin-3-yl)benzyl)-N′,1-dimethyl-1H-pyrazolo[4,3-c]quinoline-8-carbohydrazide] | < 100 nM
9 | CC(=O)N(C)N(Cc1ccc(-c2cncs2)cc1F)C(=O)c1ccc2nc(N)c3cnn(C)c3c2c1 [Example 245, N′-acetyl-4-amino-N-(2-fluoro-4-(thiazol-5-yl)benzyl)-N′,1-dimethyl-1H-pyrazolo[4,3-c]quinoline-8-carbohydrazide] | < 100 nM
10 | CC(=O)N(C)N(Cc1ccc(-c2cnn(C3(C)CC3)c2)cc1F)C(=O)c1ccc2nc(N)c3cnn(C)c3c2c1 [Example 247, N′-acetyl-4-amino-N-(2-fluoro-4-(1-(1-methylcyclopropyl)-1H-pyrazol-4-yl)benzyl)-N′,1-dimethyl-1H-pyrazolo[4,3-c]quinoline-8-carbohydrazide] | < 100 nM
11 | CC(=O)N(C)N(Cc1ccc(-c2cnn(C(F)(F)F)c2)cc1C#N)C(=O)c1ccc2nc(N)c3cnn(C)c3c2c1 [Example 251, N′-acetyl-4-amino-N-(2-cyano-4-(1-(trifluoromethyl)-1H-pyrazol-4-yl)benzyl)-N′,1-dimethyl-1H-pyrazolo[4,3-c]quinoline-8-carbohydrazide] | < 100 nM
12 | CC(=O)N(C)N(Cc1ccc(-c2cnn(C(F)F)c2)cc1C#N)C(=O)c1ccc2nc(N)c3cnn(C)c3c2c1 [Example 252, N′-acetyl-4-amino-N-(2-cyano-4-(1-(difluoromethyl)-1H-pyrazol-4-yl)benzyl)-N′,1-dimethyl-1H-pyrazolo[4,3-c]quinoline-8-carbohydrazide] | < 100 nM
13 | [2H]C([2H])([2H])N(C(=O)C1CC1)N(Cc1ncc(C(F)(F)F)cc1F)C(=O)c1ccc2nc(N)c3cnn(C)c3c2c1 [Example 268, 4-amino-N′-(cyclopropanecarbonyl)-N-((3-fluoro-5-(trifluoromethyl)pyridin-2-yl)methyl)-1-methyl-N′-(methyl-d3)-1H-pyrazolo[4,3-c]quinoline-8-carbohydrazide] | < 100 nM
14 | [2H]C([2H])([2H])N(C(C)=O)N(Cc1ccc(C(F)(F)F)cc1F)C(=O)c1ccc2nc(N)c3cnn(C)c3c2c1 [Example 269, N′-acetyl-4-amino-N-(2-fluoro-4-(trifluoromethyl)benzyl)-1-methyl-N′-(methyl-d3)-1H-pyrazolo[4,3-c]quinoline-8-carbohydrazide] | < 100 nM
15 | CC(=O)N(C)N(Cc1cccc2ccoc12)C(=O)c1ccc2nc(N)c3cnn(C)c3c2c1 [Example 273, N′-acetyl-4-amino-N-(benzofuran-7-ylmethyl)-N′,1-dimethyl-1H-pyrazolo[4,3-c]quinoline-8-carbohydrazide] | < 100 nM
16 | CN(C(=O)C1CC1)N(Cc1ccc2c(c1)OC(F)(F)O2)C(=O)c1cc2c(cc1F)nc(N)c1cnn(C)c12 [Example 282, 4-amino-N′-(cyclopropanecarbonyl)-N-((2,2-difluorobenzo[d][1,3]dioxol-5-yl)methyl)-7-fluoro-N′,1-dimethyl-1H-pyrazolo[4,3-c]quinoline-8-carbohydrazide] | < 100 nM
17 | Cn1ncc2c(N)nc3cc(F)c(C(=O)N(Cc4ccc(C(F)(F)F)cn4)N4CCOC5(CC5)C4)cc3c21 [Example 284, 4-amino-7-fluoro-1-methyl-N-(4-oxa-7-azaspiro[2.5]octan-7-yl)-N-((5-(trifluoromethyl)pyridin-2-yl)methyl)-1H-pyrazolo[4,3-c]quinoline-8-carboxamide] | < 100 nM
18 | Cn1ncc2c(N)nc3ccc(C(=O)N(Cc4ccc(C(F)(F)F)cn4)N4CCOC5(CC5)C4)cc3c21 [Example 285, 4-amino-1-methyl-N-(4-oxa-7-azaspiro[2.5]octan-7-yl)-N-((5-(trifluoromethyl)pyridin-2-yl)methyl)-1H-pyrazolo[4,3-c]quinoline-8-carboxamide] | 100 to 1000 nM
19 | CN(C(=O)C1CC1)N(Cc1ccc(OC(F)F)cn1)C(=O)c1cc2c(cc1F)nc(N)c1cnn(C)c12 [Example 290, 4-amino-N′-(cyclopropanecarbonyl)-N-((5-(difluoromethoxy)pyridin-2-yl)methyl)-7-fluoro-N′,1-dimethyl-1H-pyrazolo[4,3-c]quinoline-8-carbohydrazide] | < 100 nM
20 | CN(C(=O)C1CC1)N(Cc1ccc(OC(F)F)cn1)C(=O)c1ccc2nc(N)c3cnn(C)c3c2c1 [Example 291, 4-amino-N′-(cyclopropanecarbonyl)-N-((5-(difluoromethoxy)pyridin-2-yl)methyl)-N′,1-dimethyl-1H-pyrazolo[4,3-c]quinoline-8-carbohydrazide] | < 100 nM
21 | CN(C(=O)C1CC1)N(Cc1ccc(-c2ccn(C(F)F)n2)cc1F)C(=O)c1ccc2nc(N)c3cnn(C)c3c2c1 [Example 312, 4-amino-N′-(cyclopropanecarbonyl)-N-(4-(1-(difluoromethyl)-1H-pyrazol-3-yl)-2-fluorobenzyl)-N′,1-dimethyl-1H-pyrazolo[4,3-c]quinoline-8-carbohydrazide] | < 100 nM
22 | COc1c(CN(C(=O)c2ccc3nc(N)c4cnn(C)c4c3c2)N(C)C(=O)C2CC2)ccc(Cl)c1F [Example 313, 4-amino-N-(4-chloro-3-fluoro-2-methoxybenzyl)-N′-(cyclopropanecarbonyl)-N′,1-dimethyl-1H-pyrazolo[4,3-c]quinoline-8-carbohydrazide] | < 100 nM
23 | CN(C(=O)C1CC1)N(Cc1cc(F)c(-c2cnn(C(F)F)c2)cc1F)C(=O)c1ccc2nc(N)c3cnn(C)c3c2c1 [Example 314, 4-amino-N′-(cyclopropanecarbonyl)-N-(4-(1-(difluoromethyl)-1H-pyrazol-4-yl)-2,5-difluorobenzyl)-N′,1-dimethyl-1H-pyrazolo[4,3-c]quinoline-8-carbohydrazide] | < 100 nM
24 | COCc1cc(C(F)(F)F)ccc1CN(C(=O)c1ccc2nc(N)c3cnn(C)c3c2c1)N(C)C(=O)C1CC1 [Example 316, 4-amino-N′-(cyclopropanecarbonyl)-N-(2-(methoxymethyl)-4-(trifluoromethyl)benzyl)-N′,1-dimethyl-1H-pyrazolo[4,3-c]quinoline-8-carbohydrazide] | < 100 nM
25 | CN(C(=O)C1CC1)N(Cc1ccc(OC(F)F)cc1F)C(=O)c1ccc2nc(N)c3cnn(C)c3c2c1 [Example 317, 4-amino-N′-(cyclopropanecarbonyl)-N-(4-(difluoromethoxy)-2-fluorobenzyl)-N′,1-dimethyl-1H-pyrazolo[4,3-c]quinoline-8-carbohydrazide] | < 100 nM
26 | Cn1ncc2c(N)nc3ccc(C(=O)N(Cc4ccc(C(F)(F)F)cn4)N4CC5(CC5)COC4=O)cc3c21 [Example 319, 4-amino-1-methyl-N-(6-oxo-5-oxa-7-azaspiro[2.5]octan-7-yl)-N-((5-(trifluoromethyl)pyridin-2-yl)methyl)-1H-pyrazolo[4,3-c]quinoline-8-carboxamide] | < 100 nM
27 | Cn1ncc2c(N)nc3cc(F)c(C(=O)N(Cc4ccc(C(F)(F)F)cn4)N4CC5(CC5)COC4=O)cc3c21 [Example 320, 4-amino-7-fluoro-1-methyl-N-(6-oxo-5-oxa-7-azaspiro[2.5]octan-7-yl)-N-((5-(trifluoromethyl)pyridin-2-yl)methyl)-1H-pyrazolo[4,3-c]quinoline-8-carboxamide] | < 100 nM
28 | CC(=O)N(C)N(Cc1ccc(-c2ccn(C(F)(F)F)n2)nc1F)C(=O)c1ccc2nc(N)c3cnn(C)c3c2c1 [Example 346, N′-acetyl-4-amino-N-((2-fluoro-6-(1-(trifluoromethyl)-1H-pyrazol-3-yl)pyridin-3-yl)methyl)-N′,1-dimethyl-1H-pyrazolo[4,3-c]quinoline-8-carbohydrazide] | < 100 nM
